Results published in patent EP2557075A1, “New triazene compounds for treating cancer” (Trin Therapeutics GmbH, priority 2011, dated 2013).

Tested on: Mammakarzinome
Assay: Benzidine-induced mammary carcinoma in female rats (Experiment 6)
Format: in vivo, Ratten
Settings: s.c. or peroral, observation to day 30, percent median vs. start of treatment
Experimental: Die Mammakarzinome werden durch subkutane Injektionen von in physiologischer Kochsalz-Lösung suspendiertem Benzidin an weiblichen Ratten induziert. Je nach Art des Rattenstammes sind dazu unterschiedlich hohe Gesamtdosen und verschieden lange Induktionszeiten erforderlich. Bei zwei untersuchten Wistar-Stämmen (Züchter: Spiegel bzw. Winkelmann) erscheinen die Tumoren nach einer Induktionszeit von 150-330 Tagen und einer Gesamtdosis von 1000 bis 1225mg/kg Benzidin subkutan. Bei zwei verschiedenen Sprague-Dawley-Stämmen (Züchter: Mus Rattus AG bzw. Winkelmann) genügt schon eine einzige Benzidin-Injektion von 150mg/kg s.c., um nach 60-180 Tagen die Mammakarzinome entstehen zu lassen. Die Mammakarzinome entwickeln sich fast immer multipel. Acht oder mehr Tumoren pro Tier sind keine Seltenheit. Die Tumoren wachsen ziemlich schnell und führen etwa 30 bis 1 20 Tage nach Tastbarwerden zum Tode der Ratten. Nach 30 Tagen ist eine Tumorgröße von 6g zu erwarten (Figur 1 aus DE 01 7931 15).
Die Vergleichssubstanzen wurden für 30 Tage täglich s.c, oder peroral in Dosierungen zwischen 50-200mg/kg verabreicht. Die Verbindung nach Beispiel 1 wurde s.c. über die ersten 7 Tage in Dosierungen zwischen 20 und 100mg/kg, so dann in Dosierungen von 200 bis 1000mg/kg (in Stufen von 100mg/kg) für weitere 10 Tage appliziert. Bis zum Tag 30 erfolgte keine weitere Behandlung. […]

## CN(C)N=Nc1ccc(C(=O)c2ccc(O)cc2)cc1 [Beispiel 1]
  Entwicklung der Tumorgewichte: zu jedem Beobachtungszeitpunkt langsamer als unter einer Therapie mit den verwendeten Vergleichssubstanzen
